Results from US6946464B2, “Methods of treating and preventing a convulsive state” (Sepracor Inc., priority 1999, dated 2005).

Experiments:
[1] = tested on: non-selective muscarinic receptor; experiment: Binding at the non-selective muscarinic receptor; details: rat cerebral cortex; tested at 10 μM in duplicate
Description: (§1) The binding of N-desmethylzopiclone was determined at the central benzodiazepine receptor and at the non-selective muscarinic receptor, both of which were isolated from rat cerebral cortex. Compounds were tested initially at 10 μM in duplicate, and if at least a 50% inhibition of specific binding was observed, they were tested further at 10 different concentrations in duplicate in order to obtain full competition curves. IC50 values (concentration required to inhibit 50% specific binding) were determined by nonlinear regression analysis of the curves, and inhibition constants (Ki) were also calculated.

[2] = target: central benzodiazepine receptor; experiment: Binding at the central benzodiazepine receptor (competition of specific binding); details: rat cerebral cortex; for IC50: 10 concentrations in duplicate, nonlinear regression; for Ki: inhibition constant calculated from competition curves
Description: as §1

[3] = as reported by Goa and Heel, Drugs 32:48-65 (1986); cited from earlier work
[4] = healthy humans; cited from earlier work

Compound | Muscarinic (% Inhibition) [1] [%] | IC50 [2] [nM] | Ki [2] [nM] | reported pharmacological activity [3] | share of an oral dose of racemic zopiclone accounted for by the metabolite [4] [%]
O=C(OC1c2nccnc2C(=O)N1c1ccc(Cl)cn1)N1CCNCC1 (racemic) [(±)-N-desmethylzopiclone] | 10 | 1100 | 924 | – | –
O=C(O[C@H]1c2nccnc2C(=O)N1c1ccc(Cl)cn1)N1CCNCC1 [(+)-N-desmethylzopiclone] | 19 | 545 | 458 | – | –
O=C(O[C@@H]1c2nccnc2C(=O)N1c1ccc(Cl)cn1)N1CCNCC1 [(−)-N-desmethylzopiclone] | 24 | 7090 | 5960 | – | –
CN1C(=O)CN=C(c2ccccc2)c2cc(Cl)ccc21 [Diazepam, reference compound] | – | 12 | 10 | – | –
O=C(O[C@H]1c2nccnc2C(=O)N1c1ccc(Cl)cn1)N1CCNCC1 [N-desmethylzopiclone] | – | – | – | inactive | 15
C[N+]1([O-])CCN(C(=O)O[C@H]2c3nccnc3C(=O)N2c2ccc(Cl)cn2)CC1 [N-oxidezopiclone, reference compound] | – | – | – | less active than zopiclone | 11
